Assay results taken from patent publication US6147100A, “Pyrrolidine derivatives having phospholipase A2 inhibitory activity” (Shionogi & Co., Ltd., priority 1997, dated 2000).

Tests used:
cPLA2 = biological target: T1, cPLA2 (Homo sapiens, UniProt P47712); test: cPLA2 Inhibitory Activity; format: biochemical; details: 1-palmitoyl-2-[14C]-arachidonoyl-sn-glycero-3-phosphocholine 2.5 μM, sn-1,2-dioleoylglycerol 1.25 μM; pH 7.5, 15 min at 37° C.
T1 sequence (P47712 1-749): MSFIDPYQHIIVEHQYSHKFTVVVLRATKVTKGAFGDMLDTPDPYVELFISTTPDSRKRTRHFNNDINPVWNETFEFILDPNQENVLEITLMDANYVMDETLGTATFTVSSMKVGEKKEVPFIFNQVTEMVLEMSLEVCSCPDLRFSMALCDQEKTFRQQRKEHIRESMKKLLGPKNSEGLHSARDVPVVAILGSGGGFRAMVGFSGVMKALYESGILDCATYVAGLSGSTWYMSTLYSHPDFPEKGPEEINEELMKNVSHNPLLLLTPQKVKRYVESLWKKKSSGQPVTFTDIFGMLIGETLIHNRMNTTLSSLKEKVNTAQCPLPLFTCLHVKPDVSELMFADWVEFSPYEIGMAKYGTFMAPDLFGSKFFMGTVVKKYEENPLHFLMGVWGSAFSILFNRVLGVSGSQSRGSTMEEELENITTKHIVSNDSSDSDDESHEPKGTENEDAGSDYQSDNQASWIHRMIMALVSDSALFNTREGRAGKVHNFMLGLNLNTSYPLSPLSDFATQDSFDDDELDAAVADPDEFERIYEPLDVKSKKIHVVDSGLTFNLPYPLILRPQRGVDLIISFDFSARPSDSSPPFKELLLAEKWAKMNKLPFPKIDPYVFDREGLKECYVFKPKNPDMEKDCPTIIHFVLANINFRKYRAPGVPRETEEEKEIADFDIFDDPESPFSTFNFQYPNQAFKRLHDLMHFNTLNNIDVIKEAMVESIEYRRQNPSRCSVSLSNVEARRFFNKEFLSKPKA
How it was run: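 Radiometric assay in 50 mM HEPES pH 7.5 with 1 mM CaCl2, 150 mM NaCl, 0.1 mg/ml BSA and 1.7 mM DTT; compound and substrate added, reaction started with enzyme, 15 min at 37° C. Released fatty acids extracted (Dole method), counted by liquid scintillation versus no-compound control.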

[1] = system: production of prostaglandin E2 by human fibroblasts; test: Inhibition of Production of Prostaglandin E2 in Human Fibroblasts (IL-1 stimulation); format: cell-based; details: Fibroblast; human fibroblasts under stimulation with IL-1
How it was run: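 Human fibroblasts stimulated with IL-1, with prostaglandin E2 production measured in the presence of compound as a cellular read-out of cPLA2 inhibition.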

IC50 (cPLA2) [nM]	Structure (SMILES)	IC50 [1] [nM]
100	CC(C)CN(Cc1ccccc1)[C@@H]1C[C@@H](CNC(=O)c2ccc(/C=C3\SC(=O)NC3=O)cc2)N(C(=O)c2ccccc2C(=O)c2ccc(F)cc2)C1 [Compound M-5]	3000
270	CN(Cc1ccccc1-c1ccccc1)[C@@H]1C[C@@H](CNC(=O)c2ccc(/C=C3\SC(=S)NC3=O)cc2)N(C(=O)c2ccccc2C(=O)c2ccc(F)cc2)C1 [Compound M-7]	1500
1100	O=C1NC(=S)S/C1=C\c1ccc(COC[C@@H]2C[C@@H](OCc3ccccc3-c3ccccc3)CN2C(=O)c2ccccc2C(=O)c2ccc(F)cc2)cc1 [Compound C-2]	2200
22	CC(C)CN(Cc1ccccc1-c1ccccc1)[C@@H]1C[C@@H](CNC(=O)c2ccc(/C=C3\SC(=O)NC3=O)cc2)N(C(=O)c2ccccc2C(=O)c2ccc(F)cc2)C1 [Compound M-10]	270
730	O=C1NC(=S)S/C1=C\c1ccc(C=C[C@@H]2C[C@@H](OCc3ccccc3-c3ccccc3)CN2C(=O)c2ccccc2C(=O)c2ccc(F)cc2)cc1 [Compound E-3]	6000
760	O=C1NC(=S)S/C1=C\c1ccc(S(=O)(=O)NC[C@@H]2C[C@@H](SCc3ccccc3-c3ccccc3)CN2C(=O)c2ccccc2C(=O)c2ccc(F)cc2)s1 [Compound I-10]	320
94	CN(C(c1ccccc1)c1ccccc1)[C@@H]1C[C@@H](CNC(=O)c2ccc(/C=C3\SC(=O)NC3=O)cc2)N(C(=O)c2ccccc2C(=O)c2ccc(F)cc2)C1 [Compound M-12]	230
60	CCN(Cc1ccccc1-c1ccccc1)[C@@H]1C[C@@H](CNC(=O)c2ccc(/C=C3\SC(=O)NC3=O)cc2)N(C(=O)c2ccccc2C(=O)c2ccc(F)cc2)C1 [Compound M-8]	800

More lines, now with the values behind:

Structure (SMILES)	IC50 (cPLA2) [nM]	IC50 [1] [nM]
O=C1NC(=O)/C(=C/c2ccc(NC(=O)[C@@H]3C[C@@H](OCc4ccccc4-c4ccccc4)CN3C(=O)c3ccccc3C(=O)c3ccc(F)cc3)cc2)S1 [Compound B-1]	210	12000
O=C1NC(=O)/C(=C/c2ccc(C(=O)NC[C@@H]3C[C@@H](Oc4ccccc4C4CCCC4)CN3C(=O)c3ccccc3C(=O)c3ccc(F)cc3)cc2)S1 [Compound A-76]	72	520
O=C1NC(=O)/C(=C/c2ccc(C(=O)NC[C@@H]3C[C@@H](OCc4ccccc4-c4cccc([N+](=O)[O-])c4)CN3C(=O)c3ccccc3C(=O)c3ccc(F)cc3)cc2)S1 [Compound A-45]	74	380
CCN(CC)c1cccc(O[C@@H]2C[C@@H](CNC(=O)c3ccc(/C=C4\SC(=O)NC4=O)cc3)N(C(=O)c3ccccc3C(=O)c3ccc(F)cc3)C2)c1 [Compound A-89]	96	490
Cc1ccc(C(=O)c2ccccc2C(=O)N2C[C@H](OCc3ccccc3-c3ccccc3)C[C@H]2C(=O)Nc2ccc(/C=C3\SC(=S)NC3=O)cc2)cc1 [Compound B-6]	140	7100
O=C1NC(=O)/C(=C/c2ccc(C(=O)NC[C@@H]3C[C@@H](Oc4ccccc4-c4cccc(C(F)(F)F)c4)CN3C(=O)c3ccccc3C(=O)c3ccc(F)cc3)cc2)S1 [Compound A-109]	59	1200
Cc1ccc(C(=O)c2ccccc2C(=O)N2C[C@H](OCc3ccccc3-c3ccccc3)C[C@H]2C(=O)Nc2ccc(/C=C3\SC(=O)NC3=O)cc2)cc1 [Compound B-5]	440	7400
O=C1NC(=O)/C(=C/c2ccc(C(=O)NC[C@@H]3C[C@@H](OCc4ccccc4-c4cccc5ccccc45)CN3C(=O)c3ccccc3C(=O)c3ccc(F)cc3)cc2)S1 [Compound A-35]	40	180
O=C1NC(=O)/C(=C/c2ccc(C(=O)NC[C@@H]3C[C@@H](OCc4ccccc4-c4ccccc4)CN3C(=O)c3ccccc3C(=O)c3ccc(Cl)cc3)cc2)S1 [Compound A-22]	300	180
